Measured values reported in publication PMC9103351, “Effects of the Bark Resin Extract of Garcinia nigrolineata on Chronic Stress-Induced Memory Deficit in Mice Model and the In Vitro Monoamine Oxidases and β-Amyloid Aggregation Inhibitory Activities of Its Prenylated Xanthone Constituents” (Molecules, 2022).

What was measured:
Format in all cases: in vivo, ICR mice
UCMS mice [1] = assay: Lipid peroxidation (TBARs, MDA) in frontal cortex and hippocampus of UCMS mice; conditions: 100 mg/kg/day
Protocol: (§1) Five-week-old male ICR mice (weight: 20–30 g), which were acquired from Nomura Siam International (Pathumwan, Bangkok, Thailand), were maintained at the Animal Unit of the Faculty of Pharmaceutical Sciences, Khon Kaen University. Mice were cared for in accordance with the Guiding Principles for the Care and Use of Animals (NIH Publications No. 80–23, revised in 2011). The facilities sustained a 12 h light/dark cycle, constant temperature (22 ± 2 °C), and humidity (45 ± 2%), with full access to food and drink. The current research was authorized by the Animal Ethics Committee for Use and Care of Khon Kaen University (IACUC-KKU-121/64)
(§2) Mice in the stress groups received mild stressors for 6 weeks. […]
The lipid peroxidation was measured in the homogenates of the hippocampus and frontal cortex by using TBARs assay as previously described by Khamphukdee et al.. […] The intensity of the pink-colored complex MDA-TBA condensation indicated the extent of a lipid peroxidation, and their protein contents were quantified by the Bradford assay. The absorbance of the MDA-TBA complex was measured by UV/Visible spectrophotometer (Perkin Elmer Inc., Waltham, MA, USA) at 532 nm. Levels of the MDA were calculated from the MDA standard and presented as nmol MDA/mg protein.

UCMS mice [2] = assay: Novel Object Recognition Test (NORT) in UCMS mice; conditions: 100 mg/kg/day p.o.
Protocol: as §1, §2
The NORT is used to investigate the spatial recognition memory associated with the ability to discriminate between two sets of objects that differ in texture, color, and shape. […] The mouse was free to explore the objects for 5 min and the total time spent exploring each object and the percentage discrimination index were recorded. […] The exploration ratio was calculated according to the following equation:% Discrimination index = [(TN − TF)/(TN + TF)] × 100 where, TN = time devoted to the novel object, TF = time devoted to the familiar object.

UCMS mice [3] = assay: Y-maze test in UCMS mice; conditions: 100 mg/kg/day p.o., vs vehicle-treated UCMS group
Protocol: as §1, §2
Y-maze test was used to evaluate spontaneous alternation related to a sudden recall, a performance that was previously described by Kraeuter et al. with some modification. […] Mice were allowed to explore the maze for 4 min, during which their number and sequence of arms visits and spontaneous alternations were recorded. […] The measure of the animal recalling a memory is the percentage alternation, which was calculated by the following equation:% Alternation = [(Number of alternations)/(Total arm entries − 2)] × 100

vitamin E
UCMS-induced lipid peroxidation (MDA level) (UCMS mice [1]): significant neuroprotection | discrimination index performance (NORT test phase) (UCMS mice [2]): significantly ameliorated | percentage of spontaneous alternation (Y-maze) (UCMS mice [3]): significantly increased
